Measured values as given in patent EP0639380B1, “Cyclodextrin inclusion product of taxol, process for producing the same, and its use” (Ensuiko Sugar Refining Company, Limited, priority 1993, dated 1995).
Where two headings read alike, the source gives them in different places.

Assays:
[1] = 70 min
Description: 098 g of hydroxyethyl-β-CD in which, of 21 hydroxyl groups contained in one β -CD molecule, an average of 1.6 groups are substituted through an ether bond with a hydroxyethyl group (hereinafter referred to as HE-β-CD) or 0.090 g of hydroxypropyl-β-CD in which, of 21 hydroxyl groups contained in one β -CD molecule, an average of 0.9 groups are substituted through an ether bond with a hydroxypropyl group (hereinafter referred to as HP-β -CD), and the volume of each solution was adjusted to 10 ml to prepare aqueous CD solutions of a concentration of 6 mM.
To the solutions were added 2 mg each of taxol, and the resulting mixtures were stirred at room temperature (20 to 25°C) at 5,000 r.p.m. As a control, 2 mg of taxol were added to 10 ml of water, and the resulting mixture was stirred at room temperature (20 to 25°C) at 5,000 r.p.m. After 70 minutes of stirring, the solutions were passed through a filter of a pore diameter of 0. 45µm, and the concentration of taxol contained in the filtrates was determined by highperformance liquid chromatography (HPLC).
Then, 20 mg of taxol were added to the aqueous DM-β-CD solution, 2 mgof taxol to the aqueous HP-β-CD solution, and 1 mg each of taxol to the other aqueous CD solutions, and the resulting mixtures were stirred at room temperature (20 to 25°C) at 5,000 r.p.m. As a control, 1 mg of taxol was added to 10 ml of water, and the resulting mixture was stirred at room temperature (20 to 25°C) at 5,000 r.p.m. After 70 minutes of stirring, the solutions were passed through a filter with a pore diameter of 0.45µm, and the concentration of taxol contained in the filtrates was determined.

[2] = type: physicochemical
Description: Into 70 ml of a mixture of methanol and water (volume ratio, 1:1), the same volume of a mixture of acetonitrile and water (volume ratio, 1: 1), the same volume of a mixture of acetone and water (volume ratio, 1: 1) and the same volume of mixture of tetrahydrofuran and water (volume ratio, 1:1) were added 5 mg each of taxol. To the resulting taxol solutions were added 500 mg each of DM-β-CD, and the resulting mixtures were stirred vigorously by a stirrer at a temperature of 25°C. After two hours of stirring, 100 ml each of water were added thereto, and the resulting solutions were freeze-dried, so as to obtain powders by completely removing the water and the organic solvents. Then, 8 mg each of the thus-obtained powders were dissolved into 1 ml of water while stirring, and the resulting solutions were passed through a filter with a pore size of 0. 45µm, and the concentration of DM-β-CD and of the taxol contained in the filtrates was determined by HPLC. […]
Two taxol solutions were prepared by dissolving 5 mg each of taxol into 100 ml each of mixtures of methanol and water (volume ratio, 1:1). To these solutions were added 50 mg of HE-β-CD or HP-β-CD, and the resulting mixtures were vigorously stirred using a stirrer at 25°C. […]

Solubility of Taxol [1]	Solubilty of Taxol [1]	Solubility of Taxol [2]	Compound
47.1 µ g/ml	1236 µ g/ml	–	2, 6-di-O-methyl- β -CD [DM-β-CD]
0.5 µ g/ml	23.0 µ g/ml	–	6-mono-O-maltosyl-β-CD [G2-β-CD]
0 µ g/ml	–	–	CC(=O)O[C@H]1C(=O)[C@@]2(C)[C@H]([C@H](OC(=O)c3ccccc3)[C@]3(O)C[C@H](OC(=O)[C@H](O)[C@@H](NC(=O)c4ccccc4)c4ccccc4)C(C)=C1C3(C)C)[C@]1(OC(C)=O)CO[C@@H]1C[C@@H]2O [CD not added (Control), taxol]
0.5 µ g/ml	22.2 µ g/ml	1.3 µ g/ml	hydroxyethyl-β-CD [HE-β-CD]
1.1 µ g/ml	68.9 µ g/ml	6.1 µ g/ml	hydroxypropyl-β-CD [HP-β-CD]
